The values below come from US20050107270A1, “Alkyl ethanolamines for the control of mycobacteria in functional fluid” (priority 2003, published 2005).

SMILES strings stand for the structures.

Holding throughout (assay type): cell-based
The subject of assay [1] is Mycobacterium marinum (ATCC # 927). The assay is described as follows: Mycobacterium marinum growth control, optical absorbance at 660 nm (Example 3). The conditions noted are these: 72 hours. How it is done: The impact of these N-alkyl alkanolamines on the control of the bacterial species Mycobacterium marinum (ATCC # 927) is given in Table 3. Bacterial concentration in the experimental media was monitored indirectly via optical absorbance at 660 nm. The values reported are end-point optical densities in milliOD units after 72 hours. The media consisted of a standardized solution of clear nutrient broth (Middlebrook 7H 10 with OADC supplement), amine, buffer (Tris) and water. The pH was adjusted initially to 8.5 with Tris buffer. The first column in Table 3 gives the amine concentration in parts per million by weight. In all cases, the values are averages of at least three replicates. The final row of Table 3 gives an estimate of the concentration range in which the amine in question starts to inhibit the growth of this bacterial species (minimum inhibitor concentration MIC).

The subject of assay [2] is Mycobacterium smegmatis (ATCC # 19420). The assay is described as follows: Mycobacterium smegmatis growth control, optical absorbance at 660 nm (Example 2). The note with it: 48 hours. How it is done: The impact of these N-alkyl alkanolamines on the control of the bacterial species Mycobacterium smegmatis (ATCC # 19420) is given in the Table 2. Bacterial concentration in the experimental media was monitored indirectly via optical absorbance at 660 nm. The values reported are end-point optical densities in milliOD units after 48 hours. The media consisted of a standardized solution of clear nutrient broth (Middlebrook 7H10 with OADC supplement), amine, buffer (Tris) and water. The pH was adjusted initially to 8.5 with Tris buffer. The first column in the Table gives the amine concentration in parts per million by weight. The final two columns give data for cells that also contained 2 grams per liter of boric acid. In all cases, the values are averages of at least three replicate runs. The final row of Table 2 gives an estimate of the concentration range in which the amine in question starts to inhibit the growth of this bacterial species (minimum inhibitor concentration MIC).

For assay [3] the test system is unchanged. The assay is described as follows: Mycobacterium smegmatis growth control, optical absorbance at 590 nm with tetrazolium dye (Example 1). The note with it: compared with AMP (2-amino-2-methyl-1-propanol).
[4] abbreviates: with 2 grams per liter of boric acid.

As for `CCCCNCCO` [BAE, butylaminoethanol], the “MIC (minimum inhibitor concentration), estimated concentration range in which the amine starts to inhibit growth” value (“MIC (minimum inhibitor concentration)” for short) in assay [1] is recorded as above 4000 ppm.
Consider `C1CCC(NC2CCCCC2)CC1` [DCHA, Dicyclohexylamine, reference compound], for which the “MIC (minimum inhibitor concentration)” value in assay [2] (no boric acid) is 1500-2000 ppm; in assay [2] (setting [4]) it was 1000-2000 ppm; in assay [1], above 4000 ppm.
As for `CCCCCCCCNCCO` [OAE, octylaminoethanol], the “effectiveness against Mycobacteria, in words” value in assay [3] is reported as “markedly more effective than AMP”. The “MIC (minimum inhibitor concentration)” value was below 500 ppm in assay [2] (no boric acid), below 500 ppm in assay [2] (setting [4]) and 1200-2000 ppm in assay [1].
Regarding `CCCCCCCCN(CCO)CCO` [ODEA, Octyldiethanolamine], the “MIC (minimum inhibitor concentration)” value is given as 500-1000 ppm in assay [2] (no boric acid) and 1200-2000 ppm in assay [1].
